{"source": "patent US8192962B2", "about": "“Processes for detecting toxic substances” (Daikin Industries, Ltd., priority 2001, dated 2012)", "test_system": "Energy system protein genes", "test": "DNA chip mRNA expression in yeast, energy system protein genes (Table 4)", "type": "cell-based, Saccharomyces cerevisiae S288C", "procedure,_shortened": "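Expression change after 2 h toxicant exposure (growth-inhibiting, sub-lethal) of log-phase S. cerevisiae S288C at 25° C. Oligo-dT-purified mRNA was labeled with Cy3-dUTP or Cy5-dUTP and hybridized >12 h at 65° C. to a genome-wide chip; ratio of scanned fluorescence to control.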", "data": [{"smiles": "N#Cc1c(Cl)c(Cl)c(Cl)c(C#N)c1Cl", "note": "[(9), 2,4,5,6-tetrachloro-1,3-benzenedicarbonitrile]", "values": [{"measurement": "The level of expressed mRNA in the presence of chemical substance/The level of expressed mRNA in the absence of chemical substance", "setting": "yeast gene YAL054C", "result": 8.9}, {"measurement": "The level of expressed mRNA in the presence of chemical substance/The level of expressed mRNA in the absence of chemical substance", "setting": "yeast gene YAL060W", "result": 0.6}, {"measurement": "The level of expressed mRNA in the presence of chemical substance/The level of expressed mRNA in the absence of chemical substance", "setting": "yeast gene YBL058W, cells incubated two hours with the chemical substance", "result": 2.6}, {"measurement": "The level of expressed mRNA in the presence of chemical substance/The level of expressed mRNA in the absence of chemical substance", "setting": "yeast gene YBL099W, cells incubated two hours with the chemical substance", "result": 0.9}, {"measurement": "The level of expressed mRNA in the presence of chemical substance/The level of expressed mRNA in the absence of chemical substance", "setting": "yeast gene YBR001C, cells incubated two hours with the chemical substance", "result": 2.3}, {"measurement": "The level of expressed mRNA in the presence of chemical substance/The level of expressed mRNA in the absence of chemical substance", "setting": "yeast gene YBR185C, cells incubated two hours with the chemical substance", "result": 0.9}, {"measurement": "The level of expressed mRNA in the presence of chemical substance/The level of expressed mRNA in the absence of chemical substance", "setting": "yeast gene YBR221C, cells incubated two hours with the chemical substance", "result": 1.0}, {"measurement": "The level of expressed mRNA in the presence of chemical substance/The level of expressed mRNA in the absence of chemical substance", "setting": "yeast gene YBR299W", "result": 1.1}, {"measurement": "The level of expressed mRNA in the presence of chemical substance/The level of expressed mRNA in the absence of chemical substance", "setting": "yeast gene YCL040W", "result": 0.9}, {"measurement": "The level of expressed mRNA in the presence of chemical substance/The level of expressed mRNA in the absence of chemical substance", "setting": "yeast gene YCR012W", "result": 1.4}, {"measurement": "The level of expressed mRNA in the presence of chemical substance/The level of expressed mRNA in the absence of chemical substance", "setting": "yeast gene YCR046C, cells incubated two hours with the chemical substance", "result": 1.9}, {"measurement": "The level of expressed mRNA in the presence of chemical substance/The level of expressed mRNA in the absence of chemical substance", "setting": "yeast gene YCR105W, cells incubated two hours with the chemical substance", "result": 2.0}, {"measurement": "The level of expressed mRNA in the presence of chemical substance/The level of expressed mRNA in the absence of chemical substance", "setting": "yeast gene YDL021W", "result": 2.5}, {"measurement": "The level of expressed mRNA in the presence of chemical substance/The level of expressed mRNA in the absence of chemical substance", "setting": "yeast gene YDL067C, cells incubated two hours with the chemical substance", "result": 0.9}, {"measurement": "The level of expressed mRNA in the presence of chemical substance/The level of expressed mRNA in the absence of chemical substance", "setting": "yeast gene YDL078C, cells incubated two hours with the chemical substance", "result": 1.1}, {"measurement": "The level of expressed mRNA in the presence of chemical substance/The level of expressed mRNA in the absence of chemical substance", "setting": "yeast gene YDL107W, cells incubated two hours with the chemical substance", "result": 1.2}, {"measurement": "The level of expressed mRNA in the presence of chemical substance/The level of expressed mRNA in the absence of chemical substance", "setting": "yeast gene YDL174C", "result": 0.5}, {"measurement": "The level of expressed mRNA in the presence of chemical substance/The level of expressed mRNA in the absence of chemical substance", "setting": "yeast gene YDL181W, cells incubated two hours with the chemical substance", "result": 0.7}, {"measurement": "The level of expressed mRNA in the presence of chemical substance/The level of expressed mRNA in the absence of chemical substance", "setting": "yeast gene YDR001C", "result": 2.2}, {"measurement": "The level of expressed mRNA in the presence of chemical substance/The level of expressed mRNA in the absence of chemical substance", "setting": "yeast gene YDR050C, cells incubated two hours with the chemical substance", "result": 0.4}, {"measurement": "The level of expressed mRNA in the presence of chemical substance/The level of expressed mRNA in the absence of chemical substance", "setting": "yeast gene YDR079W, cells incubated two hours with the chemical substance", "result": 0.9}, {"measurement": "The level of expressed mRNA in the presence of chemical substance/The level of expressed mRNA in the absence of chemical substance", "setting": "yeast gene YDR178W, cells incubated two hours with the chemical substance", "result": 0.9}, {"measurement": "The level of expressed mRNA in the presence of chemical substance/The level of expressed mRNA in the absence of chemical substance", "setting": "yeast gene YDR231C", "result": 1.5}, {"measurement": "The level of expressed mRNA in the presence of chemical substance/The level of expressed mRNA in the absence of chemical substance", "setting": "yeast gene YDR298C, cells incubated two hours with the chemical substance", "result": 1.0}, {"measurement": "The level of expressed mRNA in the presence of chemical substance/The level of expressed mRNA in the absence of chemical substance", "setting": "yeast gene YDR377W, cells incubated two hours with the chemical substance", "result": 1.0}, {"measurement": "The level of expressed mRNA in the presence of chemical substance/The level of expressed mRNA in the absence of chemical substance", "setting": "yeast gene YDR529C, cells incubated two hours with the chemical substance", "result": 0.5}, {"measurement": "The level of expressed mRNA in the presence of chemical substance/The level of expressed mRNA in the absence of chemical substance", "setting": "yeast gene YEL024W, cells incubated two hours with the chemical substance", "result": 0.7}, {"measurement": "The level of expressed mRNA in the presence of chemical substance/The level of expressed mRNA in the absence of chemical substance", "setting": "yeast gene YEL039C, cells incubated two hours with the chemical substance", "result": 1.2}, {"measurement": "The level of expressed mRNA in the presence of chemical substance/The level of expressed mRNA in the absence of chemical substance", "setting": "yeast gene YER178W", "result": 1.7}, {"measurement": "The level of expressed mRNA in the presence of chemical substance/The level of expressed mRNA in the absence of chemical substance", "setting": "yeast gene YFL057C", "result": 51.8}, {"measurement": "The level of expressed mRNA in the presence of chemical substance/The level of expressed mRNA in the absence of chemical substance", "setting": "yeast gene YFR053C", "result": 0.6}, {"measurement": "The level of expressed mRNA in the presence of chemical substance/The level of expressed mRNA in the absence of chemical substance", "setting": "yeast gene YGL018C, cells incubated two hours with the chemical substance", "result": 0.5}, {"measurement": "The level of expressed mRNA in the presence of chemical substance/The level of expressed mRNA in the absence of chemical substance", "setting": "yeast gene YGL062W", "result": 1.6}, {"measurement": "The level of expressed mRNA in the presence of chemical substance/The level of expressed mRNA in the absence of chemical substance", "setting": "yeast gene YGL187C, cells incubated two hours with the chemical substance", "result": 0.6}, {"measurement": "The level of expressed mRNA in the presence of chemical substance/The level of expressed mRNA in the absence of chemical substance", "setting": "yeast gene YGL191W, cells incubated two hours with the chemical substance", "result": 1.1}, {"measurement": "The level of expressed mRNA in the presence of chemical substance/The level of expressed mRNA in the absence of chemical substance", "setting": "yeast gene YGL205W, cells incubated two hours with the chemical substance", "result": 0.5}, {"measurement": "The level of expressed mRNA in the presence of chemical substance/The level of expressed mRNA in the absence of chemical substance", "setting": "yeast gene YGL256W, cells incubated two hours with the chemical substance", "result": 0.4}, {"measurement": "The level of expressed mRNA in the presence of chemical substance/The level of expressed mRNA in the absence of chemical substance", "setting": "yeast gene YGR008C", "result": 3.1}, {"measurement": "The level of expressed mRNA in the presence of chemical substance/The level of expressed mRNA in the absence of chemical substance", "setting": "yeast gene YGR043C", "result": 10.9}, {"measurement": "The level of expressed mRNA in the presence of chemical substance/The level of expressed mRNA in the absence of chemical substance", "setting": "yeast gene YGR062C, cells incubated two hours with the chemical substance, 25° C., YPD medium", "result": 1.0}, {"measurement": "The level of expressed mRNA in the presence of chemical substance/The level of expressed mRNA in the absence of chemical substance", "setting": "yeast gene YGR087C, cells incubated two hours with the chemical substance", "result": 0.2}, {"measurement": "The level of expressed mRNA in the presence of chemical substance/The level of expressed mRNA in the absence of chemical substance", "setting": "yeast gene YGR174C, cells incubated two hours with the chemical substance", "result": 1.8}, {"measurement": "The level of expressed mRNA in the presence of chemical substance/The level of expressed mRNA in the absence of chemical substance", "setting": "yeast gene YGR192C", "result": 0.9}, {"measurement": "The level of expressed mRNA in the presence of chemical substance/The level of expressed mRNA in the absence of chemical substance", "setting": "yeast gene YGR244C", "result": 1.4}, {"measurement": "The level of expressed mRNA in the presence of chemical substance/The level of expressed mRNA in the absence of chemical substance", "setting": "yeast gene YGR254W", "result": 0.8}, {"measurement": "The level of expressed mRNA in the presence of chemical substance/The level of expressed mRNA in the absence of chemical substance", "setting": "yeast gene YGR256W", "result": 3.4}, {"measurement": "The level of expressed mRNA in the presence of chemical substance/The level of expressed mRNA in the absence of chemical substance", "setting": "yeast gene YHL008C", "result": 1.6}, {"measurement": "The level of expressed mRNA in the presence of chemical substance/The level of expressed mRNA in the absence of chemical substance", "setting": "yeast gene YHR174W", "result": 1.0}, {"measurement": "The level of expressed mRNA in the presence of chemical substance/The level of expressed mRNA in the absence of chemical substance", "setting": "yeast gene YHR179W", "result": 3.6}, {"measurement": "The level of expressed mRNA in the presence of chemical substance/The level of expressed mRNA in the absence of chemical substance", "setting": "yeast gene YIL160C", "result": 3.2}, {"measurement": "The level of expressed mRNA in the presence of chemical substance/The level of expressed mRNA in the absence of chemical substance", "setting": "yeast gene YIR031C, cells incubated two hours with the chemical substance", "result": 2.6}, {"measurement": "The level of expressed mRNA in the presence of chemical substance/The level of expressed mRNA in the absence of chemical substance", "setting": "yeast gene YJL052W", "result": 1.6}]}]}
